One molecule from patent US11573233B2, “Systems and methods for label-free detection of analytes” (UNIVERSITY OF UTAH RESEARCH FOUNDATION, priority 2015, dated 2023) can be followed below.

The assay in a line: second harmonic imaging (SHI) of tetracaine binding to lipid bilayer array. An excerpt: SH is a powerful tool for investigating small-molecule and protein interactions with membranes in a label-free manner. However, a high-throughput analog would be even more advantageous, akin to fluorescence imaging. Towards that end, SHI was implemented to measure the interactions between the local anesthetic tetracaine and a […] lipid bilayer array (MLBA) in a label-free manner allowing the effects of lipid phase and CHO content on tetracaine binding to be examined simultaneously.

On to `CCCCNc1ccc(C(=O)OCCN(C)C)cc1` [tetracaine], for which, under “effect of phospholipid unsaturation and cholesterol content”, the maximum surface excess result was “increases with the degree of unsaturation of the phospholipids and decreases with cholesterol in the lipid bilayers”. Further, the “binding affinity to lipid phases” value (l.c. phase vs solid-gel phase lipids, label-free SHI) is “higher binding affinity to l.c. phase lipids than to solid-gel phase lipids”.
